According to ChEMBL document CHEMBL2413072, “Synthesis and in vitro anticancer studies of novel C-2 arylidene congeners of lantadenes” (2013):

Legend:
Assay type in all cases: functional
[1] = tested on: Malme-3M; assay: Growth inhibition of human MALME-3M cells assessed as cell growth at 10^-4 M by sulforhodamine B assay; details: read-out: Activity
[2] = tested on: LOX IMVI; assay: Growth inhibition of human LOXIMVI cells by sulforhodamine B assay
[3] = tested on: ACHN; assay: Growth inhibition of human ACHN cells by sulforhodamine B assay
[4] = tested on: TK-10; assay: Growth inhibition of human TK10 cells assessed as cell growth at 10^-7 M by sulforhodamine B assay; details: read-out: Activity
[5] = tested on: SNB-19; assay: Growth inhibition of human SNB19 cells assessed as cell growth at 10^-8 M by sulforhodamine B assay; details: read-out: Activity
[6] = tested on: UACC-257; assay: Growth inhibition of human UACC257 cells by sulforhodamine B assay
[7] = tested on: MOLT-4; assay: Growth inhibition of human MOLT4 cells by sulforhodamine B assay
[8] = tested on: HL-60(TB); assay: Growth inhibition of human HL-60(TB) cells assessed as cell growth at 10^-8 M by sulforhodamine B assay; details: read-out: Activity
[9] = Growth inhibition of human Hs 578T cells assessed as cell growth at 10^-7 M by sulforhodamine B assay; details: read-out: Activity
[10] = tested on: SR; assay: Growth inhibition of human SR cells by sulforhodamine B assay
[11] = tested on: T47D; assay: Growth inhibition of human T47D cells assessed as cell growth at 10^-7 M by sulforhodamine B assay; details: read-out: Activity
[12] = tested on: OVCAR-4; assay: Growth inhibition of human OVCAR4 cells by sulforhodamine B assay
[13] = tested on: SF-539; assay: Growth inhibition of human SF539 cells by sulforhodamine B assay
[14] = tested on: SF-268; assay: Growth inhibition of human SF268 cells assessed as cell growth at 10^-7 M by sulforhodamine B assay; details: read-out: Activity
[15] = tested on: OVCAR-3; assay: Growth inhibition of human OVCAR3 cells assessed as cell growth at 10^-6 M by sulforhodamine B assay; details: read-out: Activity
[16] = Growth inhibition of human HCC2998 cells assessed as cell growth at 10^-7 M by sulforhodamine B assay; details: HCC 2998, read-out: Activity
[17] = tested on: Malme-3M; assay: Growth inhibition of human MALME-3M cells assessed as cell growth at 10^-6 M by sulforhodamine B assay; details: read-out: Activity
[18] = tested on: RPMI-8226; assay: Growth inhibition of human RPMI8226 cells assessed as cell growth at 10^-4 M by sulforhodamine B assay; details: read-out: Activity
[19] = tested on: CAKI-1; assay: Growth inhibition of human CAKI-1 cells assessed as cell growth at 10^-4 M by sulforhodamine B assay; details: read-out: Activity
[20] = tested on: MDA-MB-435; assay: Growth inhibition of human MDA-MB-435 cells assessed as cell growth at 10^-4 M by sulforhodamine B assay; details: read-out: Activity
[21] = tested on: TK-10; assay: Growth inhibition of human TK10 cells by sulforhodamine B assay
[22] = tested on: NCI-H460; assay: Growth inhibition of human NCI-H460 cells assessed as cell growth at 10^-4 M by sulforhodamine B assay; details: read-out: Activity
[23] = tested on: MCF7; assay: Growth inhibition of human MCF7 cells assessed as cell growth at 10^-7 M by sulforhodamine B assay; details: read-out: Activity
[24] = tested on: M14; assay: Growth inhibition of human M14 cells assessed as cell growth at 10^-6 M by sulforhodamine B assay; details: read-out: Activity
[25] = tested on: BT-549; assay: Growth inhibition of human BT549 cells assessed as cell growth at 10^-6 M by sulforhodamine B assay; details: read-out: Activity
[26] = tested on: HOP-92; assay: Growth inhibition of human HOP92 cells assessed as cell growth at 10^-6 M by sulforhodamine B assay; details: read-out: Activity
[27] = tested on: IGROV-1; assay: Growth inhibition of human IGROV1 cells assessed as cell growth at 10^-6 M by sulforhodamine B assay; details: read-out: Activity
[28] = tested on: RXF 393; assay: Growth inhibition of human RXF393 cells by sulforhodamine B assay
[29] = tested on: SK-MEL-5; assay: Growth inhibition of human SK-MEL-5 cells assessed as cell growth at 10^-8 M by sulforhodamine B assay; details: read-out: Activity
[30] = tested on: SF-268; assay: Growth inhibition of human SF268 cells by sulforhodamine B assay
[31] = read-out: LC50 (the source's name)
[32] = read-out: pLC50 (the source's name) (converted)

CC(C)=CC(=O)O[C@@H]1CC(C)(C)C[C@H]2C3=CC[C@@H]4[C@@]5(C)CCC(=O)C(C)(C)[C@@H]5CC[C@@]4(C)[C@]3(C)CC[C@@]12C(=O)O
growth at 100 µM [1]: -5%
GI50 ([2]; read-out: GI50): 6.32 µM
CC50 [2, 31]: > 100 µM
TGI ([2]; read-out: TGI): 29.3 µM
GI50 ([2]; read-out: pGI50 (converted)): 6.31 µM
CC50 [2, 32]: > 100 µM
TGI ([2]; read-out: pTGI (converted)): 29.5 µM
GI50 ([3]; read-out: GI50): 2.99 µM
CC50 [3, 31]: > 100 µM
TGI ([3]; read-out: TGI): 27.9 µM
GI50 ([3]; read-out: pGI50 (converted)): 3.02 µM
CC50 [3, 32]: > 100 µM
TGI ([3]; read-out: pTGI (converted)): 28.2 µM
growth at 0.1 µM [4]: 93%
growth at 0.01 µM [5]: 98%
GI50 ([6]; read-out: GI50): 4.98 µM
CC50 [6, 31]: > 100 µM
TGI ([6]; read-out: TGI): 50.6 µM
GI50 ([6]; read-out: pGI50 (converted)): 5.01 µM
CC50 [6, 32]: > 100 µM
TGI ([6]; read-out: pTGI (converted)): 50.1 µM
GI50 ([7]; read-out: GI50): 2920 nM
CC50 [7, 31]: > 100 µM
TGI ([7]; read-out: TGI): 20.6 µM
GI50 ([7]; read-out: pGI50 (converted)): 2950 nM
CC50 [7, 32]: > 100 µM
TGI ([7]; read-out: pTGI (converted)): 20.4 µM
growth at 0.01 µM [8]: 106%
growth at 0.1 µM [9]: 93%
GI50 ([10]; read-out: GI50): 3.75 µM
CC50 [10, 31]: > 100 µM
TGI ([10]; read-out: TGI): 33.8 µM
GI50 ([10]; read-out: pGI50 (converted)): 3.72 µM
CC50 [10, 32]: > 100 µM
TGI ([10]; read-out: pTGI (converted)): 33.9 µM
growth at 0.1 µM [11]: 96%
GI50 ([12]; read-out: GI50): 5.07 µM
CC50 [12, 31]: > 100 µM
TGI ([12]; read-out: TGI): > 100 µM
GI50 ([12]; read-out: pGI50 (converted)): 5.01 µM
CC50 [12, 32]: > 100 µM
TGI ([12]; read-out: pTGI (converted)): > 100 µM
GI50 ([13]; read-out: GI50): 4.75 µM
CC50 [13, 31]: > 100 µM
TGI ([13]; read-out: TGI): 24.2 µM
GI50 ([13]; read-out: pGI50 (converted)): 4.79 µM
CC50 [13, 32]: > 100 µM
TGI ([13]; read-out: pTGI (converted)): 24 µM
growth at 0.1 µM [14]: 94%
growth at 1 µM [15]: 84%
growth at 0.1 µM [16]: 96%
growth at 1 µM [17]: 91%
growth at 100 µM [18]: -19%
growth at 100 µM [19]: -2%
growth at 100 µM [20]: 1%
GI50 ([21]; read-out: GI50): 7.02 µM
CC50 [21, 31]: > 100 µM
TGI ([21]; read-out: TGI): 49.6 µM
GI50 ([21]; read-out: pGI50 (converted)): 7.08 µM
CC50 [21, 32]: > 100 µM
TGI ([21]; read-out: pTGI (converted)): 50.1 µM
growth at 100 µM [22]: -54%
growth at 0.1 µM [23]: 90%
growth at 1 µM [24]: 87%
growth at 1 µM [25]: 90%
growth at 1 µM [26]: 69%
growth at 1 µM [27]: 98%
GI50 ([28]; read-out: GI50): 3.31 µM
CC50 [28, 31]: 63.5 µM
TGI ([28]; read-out: TGI): 16.3 µM
GI50 ([28]; read-out: pGI50 (converted)): 3.31 µM
CC50 [28, 32]: 63.1 µM
TGI ([28]; read-out: pTGI (converted)): 16.2 µM
growth at 0.01 µM [29]: 99%
GI50 ([30]; read-out: GI50): 5.27 µM
LC50 ([30]; read-out: LC50): > 100 µM
TGI ([30]; read-out: TGI): 29.4 µM
GI50 ([30]; read-out: pGI50 (converted)): 5.25 µM
LC50 ([30]; read-out: pLC50 (converted)): > 100 µM
TGI ([30]; read-out: pTGI (converted)): 29.5 µM
